“Also recorded” adds a separate entry of the source.
Columns and labels:
PC3 xenografts = assay: PC3 (PC3-control) mouse xenograft model; assay type: in vivo, mice; settings: PC3 / PC3-control (ETS negative); Olaparib 40 mg/kg IP, NU7026 25 mg/kg IP
From the text: (§1) Olaparib was obtained from Axon Medchem (Groningen, The Netherlands).

DU145 xenografts = assay: DU145 mouse xenograft model; assay type: in vivo, mice; settings: DU145 (ETS negative), Olaparib
From the text: as §1

[1] = system: ERG-target gene expression; assay: qPCR of ERG-target genes in staged PC3-ERG tumors; assay type: in vivo, mice; settings: 4 hours, 40 mg/kg Olaparib or 25 mg/kg NU7026
DU145 cells = assay: Colony formation after radiation, isogenic DU145 model overexpressing T2:ERG; assay type: cell-based; settings: DU145, pre-treated with 10 μM Olaparib
Procedure: The effect of ETS overexpression on radioresistance was assayed. Isogenic PC3 or DU145 models overexpressing either T2:ERG or ERG with a deleted ETS domain were pre-treated with or without 10 μM Olaparib and then treated with different doses of radiation as indicated. Colony formation was assessed. Experiments were also performed in which cells were pre-treated with either PARP1 or control siRNA prior to radiation. Western blot analysis was used to assess PARP knockdown efficiency in the inset. Total Poly(ADP-ribose) (or PAR) levels were assessed by Western blot analysis from total cell lysates. All experiments were run in triplicate. Error bars are standard error of the mean.

[2] = system: PC3 model overexpressing T2:ERG; assay: γH2A.X foci after radiation (DNA double strand break repair), isogenic PC3 model; assay type: cell-based; settings: PC3, pre-treated with 10 μM Olaparib, then radiation
Procedure: (§2) The effect of ETS overexpression on repair of DNA double strand breaks was assayed. Isogenic PC3 and DU145 models, respectively, overexpressing either T2:ERG or ERG with a deleted ETS domain were pre-treated with or without 10 μM Olaparib and then treated with radiation. Immunofluorescence staining of γH2A.X foci was used to assess total levels of DNA damage and repair rate. The number of cells with >10 γH2A.X foci were quantified at each time point as indicated. Representative photomicrographs were taken 24 hours after treatment using an Olympus confocal microscope with a 100× Oil objective. All experiments were run in triplicate. Error bars are standard error of the mean.

[3] = system: DU145 model overexpressing T2:ERG; assay: γH2A.X foci after radiation (DNA double strand break repair), isogenic DU145 model; assay type: cell-based; settings: DU145, pre-treated with 10 μM Olaparib, then radiation
Procedure: as §2

[4] = Fong et al., N Engl J Med 361, 123-134 (2009); cited from earlier work

Question: Which results are given for `O=C(c1cc(Cc2n[nH]c(=O)c3ccccc23)ccc1F)N1CCN(C(=O)C2CC2)CC1` [Olaparib, 4-[3-(4-Cyclopropanecarbonylpiperazine-1-carbonyl)-4-fluorobenzyl]-2H-phthalazin-1-one]?
Answer: xenograft growth (PC3 xenografts): did not block the growth; also recorded: did not significantly inhibit xenograft growth; xenograft growth (DU145 xenografts): not responsive; also recorded: did not inhibit the growth; ERG-target gene expression in tumors (qPCR) [1]: loss of ERG-target gene expression; ERG induced radiation resistance (colony formation) (DU145 cells): blocks ERG induced radiation resistance; also recorded: reversed by PARP inhibition; ERG-enhanced DNA DSB damage repair (γH2A.X foci) [2]: blocked; also recorded: reversed by PARP inhibition; ERG-enhanced DNA DSB damage repair (γH2A.X foci) [3]: blocked; also recorded: reversed by PARP inhibition; tolerability in cancer patients [4]: well tolerated in cancer patients with a minimal side effect profile; also recorded: well tolerated at doses capable of inhibiting PARP activity

— US20120035244A1, “PARP1 TARGETED THERAPY” (THE REGENTS OF THE UNIVERSITY OF MICHIGAN, priority 2010, published 2012)
